Experiment: xn = mol fraction of the nth substance listed
Conditions: for surface tension liquid-gas: Pendant drop shape; for mass density: 101 kPa, Liquid, Vibrating tube method

Cc1ccc(C)c(C)c1 [1,2,4-trimethylbenzene] + CCCCOC(C)=O
Conditions	mass density [kg/m3]	surface tension liquid-gas [mN/m]
298.15 K, x2 = 0	871.66	29.17
298.15 K, x2 = 0.0563	871.92	–
298.15 K, x2 = 0.0998	–	28.68
298.15 K, x2 = 0.1045	872.14	–
298.15 K, x2 = 0.1496	872.35	–
298.15 K, x2 = 0.1996	872.58	–
298.15 K, x2 = 0.2001	–	28.2
298.15 K, x2 = 0.2533	872.82	–
298.15 K, x2 = 0.2994	–	27.73
298.15 K, x2 = 0.2998	873.03	–
298.15 K, x2 = 0.3552	873.27	–
298.15 K, x2 = 0.3998	873.46	–
298.15 K, x2 = 0.4003	–	27.25
298.15 K, x2 = 0.45	873.68	–
298.15 K, x2 = 0.4958	–	26.78
298.15 K, x2 = 0.5001	873.9	–
298.15 K, x2 = 0.5503	874.11	–
298.15 K, x2 = 0.5995	874.32	–
298.15 K, x2 = 0.6001	–	26.33
298.15 K, x2 = 0.6495	874.54	–
298.15 K, x2 = 0.6998	874.75	–
298.15 K, x2 = 0.6999	–	25.93
298.15 K, x2 = 0.7495	874.97	–
298.15 K, x2 = 0.7998	–	25.57
298.15 K, x2 = 0.7999	875.2	–
298.15 K, x2 = 0.8499	875.43	–
298.15 K, x2 = 0.8989	875.67	–
298.15 K, x2 = 0.8997	–	25.23
298.15 K, x2 = 0.9478	875.91	–
303.15 K, x2 = 0	867.61	28.67
303.15 K, x2 = 0.1001	867.99	28.18
303.15 K, x2 = 0.2009	868.38	27.69
303.15 K, x2 = 0.3006	868.73	27.22
303.15 K, x2 = 0.4001	869.1	26.73
303.15 K, x2 = 0.5004	869.45	26.27
303.15 K, x2 = 0.6006	869.81	25.8
303.15 K, x2 = 0.7001	870.15	25.4
303.15 K, x2 = 0.7997	870.43	25.03
303.15 K, x2 = 0.9	870.91	24.7
308.15 K, x2 = 0	863.59	28.17
308.15 K, x2 = 0.1005	863.87	27.67
308.15 K, x2 = 0.1998	864.16	27.18
308.15 K, x2 = 0.3004	864.42	26.7
308.15 K, x2 = 0.4003	864.67	26.21
308.15 K, x2 = 0.5007	864.93	25.75
308.15 K, x2 = 0.5991	865.17	25.28
308.15 K, x2 = 0.6995	865.43	24.87
308.15 K, x2 = 0.7999	865.68	24.5
308.15 K, x2 = 0.9004	865.94	24.16
313.15 K, x2 = 0	859.54	27.67
313.15 K, x2 = 0.0499	859.66	–
313.15 K, x2 = 0.1002	859.76	27.12
313.15 K, x2 = 0.1503	859.87	–
313.15 K, x2 = 0.1995	859.98	26.55
313.15 K, x2 = 0.25	860.08	–
313.15 K, x2 = 0.3	860.19	26.02
313.15 K, x2 = 0.35	860.28	–
313.15 K, x2 = 0.3996	860.37	25.48
313.15 K, x2 = 0.4499	860.46	–
313.15 K, x2 = 0.5002	860.56	24.99
313.15 K, x2 = 0.5499	860.65	–
313.15 K, x2 = 0.5998	860.73	24.55
313.15 K, x2 = 0.6503	860.82	–
313.15 K, x2 = 0.6999	860.91	24.2
313.15 K, x2 = 0.7499	861.01	–
313.15 K, x2 = 0.8004	861.1	23.9
313.15 K, x2 = 0.85	861.21	–
313.15 K, x2 = 0.9005	861.33	23.62
313.15 K, x2 = 0.9496	861.45	–

Cc1ccc(C)c(C)c1 [1,2,4-trimethylbenzene] + CCCOC(C)=O
Conditions	mass density [kg/m3]	surface tension liquid-gas [mN/m]
298.15 K, x2 = 0	871.66	29.17
298.15 K, x2 = 0.0607	872.13	–
298.15 K, x2 = 0.1002	872.45	28.61
298.15 K, x2 = 0.1578	872.95	–
298.15 K, x2 = 0.2008	873.32	28.06
298.15 K, x2 = 0.2518	873.78	–
298.15 K, x2 = 0.302	874.24	27.51
298.15 K, x2 = 0.3504	874.71	–
298.15 K, x2 = 0.4003	875.2	26.97
298.15 K, x2 = 0.4568	875.78	–
298.15 K, x2 = 0.4993	876.23	26.44
298.15 K, x2 = 0.549	876.77	–
298.15 K, x2 = 0.6006	877.36	25.93
298.15 K, x2 = 0.6494	877.93	–
298.15 K, x2 = 0.7006	878.55	25.44
298.15 K, x2 = 0.7493	879.16	–
298.15 K, x2 = 0.7991	879.8	24.96
298.15 K, x2 = 0.8497	880.49	–
298.15 K, x2 = 0.8991	881.17	24.48
298.15 K, x2 = 0.9464	881.86	–
303.15 K, x2 = 0	867.61	28.67
303.15 K, x2 = 0.0982	868.25	28.09
303.15 K, x2 = 0.1994	868.98	27.53
303.15 K, x2 = 0.3006	869.76	26.96
303.15 K, x2 = 0.3996	870.56	26.4
303.15 K, x2 = 0.503	871.46	25.86
303.15 K, x2 = 0.6003	872.41	25.34
303.15 K, x2 = 0.6979	873.41	24.83
303.15 K, x2 = 0.7993	874.52	24.34
303.15 K, x2 = 0.8992	875.72	23.86
308.15 K, x2 = 0	863.59	28.17
308.15 K, x2 = 0.0986	864.07	27.57
308.15 K, x2 = 0.1998	864.65	26.99
308.15 K, x2 = 0.3028	865.29	26.41
308.15 K, x2 = 0.4004	865.93	25.83
308.15 K, x2 = 0.5036	866.67	25.27
308.15 K, x2 = 0.6003	867.44	24.74
308.15 K, x2 = 0.6977	868.27	24.22
308.15 K, x2 = 0.8	869.22	23.72
308.15 K, x2 = 0.9005	870.23	23.23
313.15 K, x2 = 0	859.54	27.67
313.15 K, x2 = 0.0497	859.64	–
313.15 K, x2 = 0.0998	859.82	–
313.15 K, x2 = 0.1005	–	27.05
313.15 K, x2 = 0.15	860.01	–
313.15 K, x2 = 0.2001	860.24	26.46
313.15 K, x2 = 0.2498	860.45	–
313.15 K, x2 = 0.2999	860.71	25.86
313.15 K, x2 = 0.35	860.98	–
313.15 K, x2 = 0.4001	861.25	25.26
313.15 K, x2 = 0.4503	861.53	–
313.15 K, x2 = 0.4997	861.83	–
313.15 K, x2 = 0.4998	–	24.69
313.15 K, x2 = 0.5502	862.15	–
313.15 K, x2 = 0.6001	862.48	24.15
313.15 K, x2 = 0.6499	862.81	–
313.15 K, x2 = 0.7	863.18	–
313.15 K, x2 = 0.7002	–	23.61
313.15 K, x2 = 0.7503	863.54	–
313.15 K, x2 = 0.7998	863.94	23.1
313.15 K, x2 = 0.85	864.35	–
313.15 K, x2 = 0.9002	864.79	22.61
313.15 K, x2 = 0.9495	865.18	–

Cc1cc(C)cc(C)c1 [1,3,5-trimethylbenzene] + CCCCOC(C)=O
Conditions	mass density [kg/m3]	surface tension liquid-gas [mN/m]
298.15 K, x2 = 0	861.04	28.09
298.15 K, x2 = 0.0736	861.9	–
298.15 K, x2 = 0.1009	862.23	27.72
298.15 K, x2 = 0.1521	862.84	–
298.15 K, x2 = 0.2018	863.45	27.34
298.15 K, x2 = 0.2523	864.09	–
298.15 K, x2 = 0.3003	864.7	26.98
298.15 K, x2 = 0.3499	865.36	–
298.15 K, x2 = 0.4005	866.03	26.61
298.15 K, x2 = 0.45	866.72	–
298.15 K, x2 = 0.4996	867.44	26.27
298.15 K, x2 = 0.5446	868.11	–
298.15 K, x2 = 0.5979	868.92	25.93
298.15 K, x2 = 0.6503	869.76	–
298.15 K, x2 = 0.7016	870.59	25.62
298.15 K, x2 = 0.7504	871.44	–
298.15 K, x2 = 0.8005	872.32	25.36
298.15 K, x2 = 0.846	873.17	–
298.15 K, x2 = 0.8981	874.13	25.12
298.15 K, x2 = 0.9333	874.87	–
303.15 K, x2 = 0	856.96	27.67
303.15 K, x2 = 0.1005	858.04	27.29
303.15 K, x2 = 0.1997	859.17	26.9
303.15 K, x2 = 0.3	860.37	26.53
303.15 K, x2 = 0.3996	861.61	26.14
303.15 K, x2 = 0.5007	862.98	25.79
303.15 K, x2 = 0.6007	864.4	25.45
303.15 K, x2 = 0.7001	865.94	25.12
303.15 K, x2 = 0.7971	867.56	24.85
303.15 K, x2 = 0.9009	869.4	24.6
308.15 K, x2 = 0	852.84	27.24
308.15 K, x2 = 0.1002	853.8	26.84
308.15 K, x2 = 0.1986	854.82	26.44
308.15 K, x2 = 0.2997	855.94	26.05
308.15 K, x2 = 0.4003	857.12	25.66
308.15 K, x2 = 0.5007	858.39	25.29
308.15 K, x2 = 0.5997	859.71	24.94
308.15 K, x2 = 0.7005	861.18	24.6
308.15 K, x2 = 0.8	862.75	24.32
308.15 K, x2 = 0.9006	864.44	24.07
313.15 K, x2 = 0	848.74	26.82
313.15 K, x2 = 0.0498	849.12	–
313.15 K, x2 = 0.0997	849.59	26.39
313.15 K, x2 = 0.15	850.08	–
313.15 K, x2 = 0.2012	850.6	25.97
313.15 K, x2 = 0.2502	851.13	–
313.15 K, x2 = 0.2996	851.64	25.57
313.15 K, x2 = 0.3507	852.22	–
313.15 K, x2 = 0.3987	852.78	25.16
313.15 K, x2 = 0.4497	853.39	–
313.15 K, x2 = 0.5008	854	24.79
313.15 K, x2 = 0.5499	854.62	–
313.15 K, x2 = 0.5964	855.24	24.42
313.15 K, x2 = 0.6503	855.99	–
313.15 K, x2 = 0.6995	856.68	24.07
313.15 K, x2 = 0.7499	857.4	–
313.15 K, x2 = 0.7994	858.19	23.79
313.15 K, x2 = 0.8499	858.99	–
313.15 K, x2 = 0.9	859.83	23.54
313.15 K, x2 = 0.9495	860.67	–

— the NIST ThermoML archive (doi:10.1016/j.jct.2006.07.025)
